Measurements taken from patent US8173133B2, “Acyl pseudodipeptides which carry a functionalized auxiliary arm” (OM Pharma, priority 1999, dated 2012).
Values after ≈ are worked out from the molar mass of the structure shown.

Legend:
bone marrow stem cells = assay: bone marrow stem cell proliferation (XTT); assay type: cell-based, C57/BL6 mice; conditions: for Max amplitude: 7 days, XTT 492 nm; for Min amplitude: blank ± 3× standard deviation; for Max concentration: concentration at maximum amplitude; for EC50 conc: concentration corresponding to 50% of maximum amplitude; for Min concentration: lowest concentration inducing a significant proliferation
Text: 6-week old male C57/BL6 mice are killed by CO2 inhalation. The hip, femur, tibia and hind leg bones are removed. The marrow is extracted from the bone lumen by injecting Dulbecco's Modified Eagle Medium (DH medium) from the end portions which had been excised. The stem cells are washed and suspended again in DH medium supplemented with 20% foetal calf serum (FCS) The cell concentration is adjusted to 500000 cells/ml.
Products previously dissolved in DH medium supplemented with 20% FCS, amino acids and antibiotics are serially diluted directly into a microtiter plate. The products are tested in triplicate and each microtiter plate includes a negative control containing plain medium. The final volume in each well is 100 μl.
100 μl of the cell suspension are added to diluted solutions of products and the cells are incubated for 7 days in an incubator at 37° C., under 8% CO2 and a moisture saturated atmosphere. Cell proliferation is determined by measuring the […] of a chromogenic substrate XTT (2,3-bis[2-methoxy-4-nitro-5-sulphophenyl]-2H-tetrazolium-5-carboxanilide) in mitochondria of viable cells.
At the end of the incubation period, 50 μl of the XTT substrate solution (1 mg/ml XTT+0.008 mg/ml phenazine methosulfate) are added to each well. After an 8 hour incubation period at 37° C. under 8% CO2 in a moisture saturated incubator, the microtiter plates are read with a spectrophotometer at 492 nm against a reference sample at 690 nm.
Results are expressed as mean value±standard deviation and plotted as a dose versus response curve. Values for a negative control composed of DH medium (mean±standard deviation) are also graphically shown.
From this dose versus response curve, 3 curve variables are computed:
Max: maximum curve amplitude and corresponding concentration
EC50: concentration corresponding to 50% of maximum amplitude
Min: lowest concentration inducing a significant proliferation corresponding to the blank±3× standard deviation value
Concentration values corresponding to EC50 and Min are determined from line segments joining different points on the curve.
If the curve has no plateau phase but an ascending configuration for the highest concentration being tested, a “>” sign is shown before Max and EC50 values.

[1] = tested on: human peripheral blood mononuclear cells; assay: α TNF production by human peripheral blood mononuclear cells; assay type: cell-based; conditions: for α TNF produced: 18 hours
Method: Mononuclear cells of peripheral blood are recovered from buffy coats of 6 healthy donors. Such buffy coat cells are resuspended and mononuclear cells are isolated by centrifugation on a Ficoll-Paque gradient (Amersham Pharmacia). Purified mononuclear cells are resuspended into RPMI-1640 medium supplemented with 10% FCS, antibiotics, mercaptoethanol and L-glutamine. Cell concentration is adjusted to 2×10^6 viable cells/ml
100 μl of each one of these solutions of acyl dipeptide-like compounds bearing an accessory functional side chain spacer, diluted 100-, 10- or 1-fold in RPMI medium 1640, are dispensed into a microtiter plate. Samples are tested in triplicates, and each microtiter plate includes a negative control made up of plain medium. Dilutions of E. coli LPS (ranging grom 1 to 0.00001 μg/ml) are used as a positive control.
100 μl of the cell suspension are added to each well containing product dilute solutions or control. Cells are incubated with the products for 18 hours in an incubator at 37° C., under 5% CO2 and a moisture saturated atmosphere.
At the end of the incubation period, microtiter plates are centrifuged, and the supernatant fluids are pooled and frozen at −80° C. as aliquots until time of ELISA assay.
Concentration of α TNF secreted by mononuclear cells is determined by chemiluminescent ELISA (QuantiGlo #QTAOO R&D kit). 4-fold supernatant fluid dilutions are dispensed into each well of the microtiter plate to which anti-αTNF antibodies are bound. The microtiter plate is incubated for 4 hours at room temperature. After washing, peroxidase-conjugated anti-human a TNF antibody is added. Following a 2 hour incubation period and thorough washing, a chemiluminescent substrate is added and chemilunescence is read after 20 minutes. α TNF content in the supernatant fluid is determined with respect to a standard curve covering the 7000 to 0.7 pg/ml range.
Results are expressed in pg/ml of α TNF produced. Results derive from an experiment representative of acyl-dipeptide-like compound activity

[2] = tested on: human peripheral blood mononuclear cells; assay: inhibition of E. coli LPS-induced α TNF production in human peripheral blood mononuclear cells; assay type: cell-based; conditions: product 10 μg/ml; for 50% inhibition LPS: LPS concentration at which α TNF production is 50% of control; for max. Inhibition LPS: LPS concentration corresponding to maximum inhibition
Method: Mononuclear cells of peripheral blood are recovered from buffy coats of 6 healthy donors. Such buffy coat cells are resuspended and mononuclear cells are isolated by centrifugation on a Ficoll-Paque gradient (Amersham Pharmacia). Purified mononuclear cells are resuspended into RPMI-1640 medium supplemented with 10% FCS, antibiotics, mercaptoethanol and L-glutamine. Cell concentration is adjusted to 2×10^6 viable cells/ml.
Product mediated Inhibition is determined by preincubating those products with mononuclear cells, and adding, 1 hour later, serially diluted solutions of LPS capable of inducing α TFN production. […] E. coli LPS is serially diluted (10-fold dilution) to be in the range of 1 to 0.00001 μg/ml
50 μl of 10 μg/ml dilute product solutions in RPMI 1640 medium are dispensed into a microtiter plate. Each assay (10 μg/ml product concentration+dilute E. coli LPS) is run in triplicates and each microtiter plate includes a negative control comprised of plain medium. LPS-induced α TNF production (without inhibitor) is determined by adding E. coli LPS dilutions to RPMI medium.
100 μl of the cell suspension are added to each well containing dilutions of either product or control. Cells are incubated with the products for 1 hour in an incubator at 37° C., under 5% CO2 and a moisture saturated atmosphere.
At the end of the pre-incubation period, 50 μl of serially diluted solutions of E. coli LPS are added. Incubation of mononuclear cells with the product and LPS is extended for 18 hours. At the end of the cell activation period, the microtiter plates are centrifuged, and the supernatants are pooled and frozen at −80° C. as aliquots until time of ELISA assay.
Concentration of αTNF secreted by mononuclear cells is determined by chemiluminescent ELISA (QuantiGlo #QTAOO R&D kit). 4-fold dilutions of supernatant fluid are dispensed into each well of the microtiter plate to which anti-human αTNF antibodies are bound. The microtiter plate is incubated for 4 hours at room temperature. After washing, peroxidase-conjugated anti-human αTNF antibody is added. Following a 2 hour incubation period and a thorough washing, a chemiluminescent substrate is added and chemilunescence is read after 20 minutes. αTNF content in the supernatant fluid is determined with respect to a standard curve covering the 7000 to 0.7 pg/ml range.
Inhibition is characterized by the E. coli LPS concentration which elicits 50% production of α TNF during co-incubation in comparison to a control including only RPMI. This concentration increases as product inhibition activity becomes stronger. Knowing inhibition values of α TNF production, this concentration is given by calculating 100-(αTNF production induced by product and LPS)/(αTNF production induced by LPS alone)*100. From these inhibition data, concentration is determined by linear regression along the line segment which joins 2 LPS dilutions giving approx. 50% inhibition.
Product ability to inhibit α TNF production in mononuclear cells in response to LPS is further characterized by maximum inhibition. […] Results are calculated from a representative experience using all products.

SMILES | Max amplitude (bone marrow stem cells) | Min amplitude (bone marrow stem cells) | Max concentration (bone marrow stem cells) | EC50 conc (bone marrow stem cells) | Min concentration (bone marrow stem cells) | α TNF produced ([1]; product 1 μg/ml) | α TNF produced ([1]; product 10 μg/ml) | α TNF produced ([1]; product 100 μg/ml) | max. Inhibition [2] | 50% inhibition LPS [2] | max. Inhibition LPS [2] | α TNF production ([1]; up to 100 μg/ml)
CCCCCCCCCCCC(=O)O[C@H](CCCCCCCCCCC)CC(=O)N[C@H](CC(=O)O)C(=O)NCCC[C@H](COC(=O)CCC(=O)O)NC(=O)C[C@H](O)CCCCCCCCCCC [OM-197-MC-Succ] | 2.16 O.D | 0.80 O.D | 50 µg/mL | 24.7 µg/mL (≈ 25.5 µM) | 2.95 µg/mL | 0 pg/mL | 96 pg/mL | 176 pg/mL | 100% | 1 µg/mL | 0.018 µg/mL | 
CCCCCCCCCCC[C@@H](O)CC(=O)N[C@H](CCCNC(=O)[C@@H](CC(=O)O)NC(=O)C(CCCCCC)OC(=O)CCCCCCCCC)COC(=O)CCCCCN (stereo partly drawn) [OM-197-N′(C10-20C8)-MC-AC, N-(2-decanoyloxyoctanoyl)-D-aspartic acid, α-N-{(4R)-5-(6-aminohexanoyloxy)-4-[(R)-3-hydroxytetradecanoylamino]-pentyl}amide] | 0.75 O.D | 0.80/nd O.D | 6.25 µg/mL |  |  | 0 pg/mL | 0 pg/mL | 0 pg/mL | 85% | 0.0009 µg/mL | <0.00001 µg/mL | do not induce any αTNF production
CCCCCCCCCCCC(=O)O[C@H](CCCCCCCCCCC)CC(=O)NC(CCOP(=O)(O)O)C(=O)NCCC[C@H](COC(=O)CCCCCN)NC(=O)C[C@H](O)CCCCCCCCCCC (mixture of isomers) [OM-197-MP-AC (R/S, R), (3RS,9R)-3-[(R)-3-dodecanoyloxytetradecanoylamino]-4oxo-5-aza-9-[(R)-3-hydroxytetradecanoylamino]-decan-10-ol 1-dihydrogen-phosphate(6-aminohexanoate)] | 2.12 O.D | 0.80 O.D | 25 µg/mL | 3.1 µg/mL (≈ 2.96 µM) | 0.71 µg/mL | 244 pg/mL | 156 pg/mL | 160 pg/mL | 100% | >1 µg/mL | 0.00002 µg/mL | 
CCCCCCCCCCCC(=O)O[C@H](CCCCCCCCCCC)CC(=O)N[C@H](CC(=O)O)C(=O)NCCC[C@H](COC(=O)CCCCCN)NC(=O)C[C@H](O)CCCCCCCCCCC [OM-197-MC-AC, N—[(R)-3-dodecanoyloxytetradecanoyl]-D-aspartic acid, α-N-{(4R)-5-(6-aminohexanoyloxy)-4-[(R)-3-hydroxytetradecanoylamino]pentyl}amide] | 1.62 O.D | 0.80 O.D | 50 µg/mL | 31.0 µg/mL (≈ 31.6 µM) | 0.92 µg/mL | 12 pg/mL | 140 pg/mL | 144 pg/mL | 100% | 0.88 µg/mL | 0.00003 µg/mL | 
